Assay results as given in patent publication US8048455B2, “Treatment of cancer and inflammatory disorder” (Academia Sinica, priority 2006, dated 2011).

Key:
[1] = tested on: COX-2 and nitrotyrosine-containing proteins; experiment: Immunohistochemical study of COX-2 and nitrotyrosine protein expression in mouse skin; format: in vivo, Female ICR mice
Method: Female ICR mice were topically treated on their shaven backs with vehicle (acetone), TPA, or SNP for 4 hours, or were treated with compound (dLGG, celecoxib, or PTIO) topically for 30 minutes before treating with TPA or SNP for 4 hours and finally killed by cervical dislocation. The formalin-fixed, paraffin-embedded skin tissues were stained according to Chiang et al. Br J Pharmacol 2005; 146:352-63.
Immunohistochemical study was carried out to examine the ability of dLGG to inhibit TPA induction of COX-2 and nitration of proteins in vivo using immunohistochemical analysis in a mouse skin system. Dorsal skin of female ICR mice was treated topically with acetone (vehicle control) or TPA (10 nmol) for 4 hours or with various concentrations of dLGG or celecoxib for 30 minutes before TPA treatment for 4 hours. Immunohistograms were taken with an Olympus DP-70 camera on a Nikon ECLIPSE E800 microscope.

iNOS protein = iNOS protein expression (immunoblotting) in LPS-stimulated RAW264.7 cells; format: cell-based, murine; conditions: LPS 1 μg/mL 18 h
Method: Total cellular proteins and the specific cytosolic and nuclear proteins were prepared using methods described in Chiang et al. Protein content was measured by the Bradford method (Bio-Rad). Protein was resolved by 5-20% gradient SDS-PAGE and subjected to immunoblotting using enhanced chemiluminescence reagents (ECL, Amersham). Monoclonal antibodies against PARP (Transduction Laboratories, Lexington, Ky.), GA3PDH (Biogenesis, Poole, UK), α-tubulin (Oncogene Science, Cambridge, UK), COX-2 (Cayman Chemical), phospho-(Ser32)-IκBα, phospho-IKKα(Ser180)/IKKβ(Ser181) (New England Biolabs, Beverly, Mass.), iNOS, IκBα, IKKα/β or NF-κB p65 (RelA) (Santa Cruz Biotechnology, Santa Cruz, Calif.) were used.
RAW264.7 cells were treated with the indicated concentrations of dLGG for 1 hour then LPS (1 μg/mL) was added for 18 hours. Total cellular protein (20 μg) was then subjected to immunoblotting. Quantification of iNOS mRNA and protein expression involved normalization to GA3PDH (internal control) by densitometry. […] Thus, the dLGG-induced inhibition of NO production in LPS-stimulated macrophages is also mediated through suppression of both transcription and translation of iNOS.

human COX-2 promoter = experiment: COX-2 promoter-driven luciferase reporter assay in TPA-treated B16 melanoma cells; format: cell-based, murine; conditions: for Suppression of full-length COX-2 promoter activity vs TPA only: TPA 50 ng/mL 6 h
From the text: A double-mutated COX-2 promoter containing mutations on both NF-κB sites was also constructed (FIG. 2). PPGL-3-Basic vector was used as a negative control in luciferase assays. COX-2 reporter activity in arbitrary units (AU) was normalized to that for the Renilla luciferase reporter.
Murine melanoma B-16 cells co-transfected with the full-length pCOX-2-Luc and internal control plasmid pRL-TK-Luc plasmid constructs were stimulated without (control) or with TPA, in the absence or presence of the indicated concentrations of CREa8. An amount of 10 μg of total protein lysate was subjected to dual luciferase reporter assay. The induction fold of COX promoter activity by TPA treatment only is presented as 100%. The statistical analyses between […] and CREa8, aspirin, or indomethacin (Indo.) treatment were performed using Student's t-test.
B-16 cells were co-transfected with the full-length pCOX-2-Luc and internal control Renilla pRL-TK-Luc plasmid constructs with the LIPOFECTAMINE reagent (Invitrogen). The cells were then stimulated with vehicle (0.001% DMSO) or with 50 ng/mL TPA, in the absence or presence of dLGG for 6 hours. Ten μg of total protein lysate prepared with Passive Lysis Buffer (Promega) was subjected to dual luciferase reporter assay. The induction fold of COX-2 promoter activity by TPA treatment only is presented as 100%.
The contribution of specific cis-acting element binding sites on the transcription of COX-2 was examined. Data were obtained from 2 to 3 experiments with 3 to 6 replicates and expressed as mean±SD. Two-way ANOVA was used to analyze significance of differences.

NF-κB•DNA complex = experiment: Electrophoretic mobility shift assay of NF-κB binding to consensus DNA in LPS-stimulated RAW 264.7 cells; format: cell-based, murine; conditions: for NF-κB•DNA complex, of LPS alone: 90 minutes; for NF-κB•DNA complex level: 75 μg/mL
Method: EMSA was performed with the […]™ Chemiluminescent EMSA kit (Pierce Biotechnology, Rockford, Ill.). […] The DNA-protein complexes were subjected to 5-10% gradient PAGE. Competition assay with unlabeled oligonucleotide (cold DNA) was performed in parallel. […]

iNOS mRNA = iNOS mRNA expression (RT-PCR) in LPS-stimulated RAW264.7 cells; format: cell-based, murine; conditions: LPS 1 μg/mL 6 h
Method: For each RT-PCR analysis, 2 μg of total RNA isolated with TRIZOL® Reagent was used to synthesize 1st-strand cDNA using […]™ II Reverse Transcriptase (Invitrogen). The iNOS and COX-2 genes were amplified and analyzed using specific oligonucleotide primers and PCR reactions by method described in Chiang et al. Br J Pharmacol 2005; 146:352-63).
RAW264.7 cells were treated with various concentrations of dLGG for 1 hour, then incubated with LPS (1 μg/mL) for 6 hours. Total cellular RNA was subjected to RT-PCR, and final PCR product resolved by 1% agarose gel electrophoresis.

CC/C=C\C/C=C\C/C=C\CCCCCCCC(=O)OC[C@H](CO[C@@H]1O[C@H](CO)[C@H](O)[C@H](O)[C@H]1O)OC(=O)CCCCCCC/C=C\C/C=C\C/C=C\CC [dLGG, 1,2-di-O-α-linolenoyl-3-O-β-galactopyranosyl-sn-glycerol]
Inhibitory effect on COX-2 protein expression and nitrotyrosine-containing proteins versus celecoxib 10 mg in 200 μL/site ([1]; 1 mg in 200 μL/site (6.46 mM)): comparable to that of celecoxib | TPA-induced increases of COX-2 and nitrotyrosine-containing proteins in epidermis ([1]; topical 30 min before TPA 10 nmol 4 h): significantly attenuated | Topical SNP-induced nitroprotein formation in mouse skin ([1]; topical, SNP-treated): suppressed | iNOS protein level (iNOS protein): Little iNOS protein was detected | Suppression of full-length COX-2 promoter activity vs TPA only (human COX-2 promoter; 50 μg/mL, B16 cells): 20% | TPA-induced luciferase activity of −1334/−1 and −646/−1 promoter constructs (smaller) (human COX-2 promoter; 100 μg/mL, B16 cells): 65-68% | Suppression of full-length COX-2 promoter activity vs TPA only (human COX-2 promoter; 100 μg/mL, B16 cells): 33% | TPA-activated increases in luciferase activity, truncated promoter constructs (human COX-2 promoter; 100 μg/mL, all transfected cells): able to fully inhibit | TPA-induced COX-2 promoter activity in mutant promoter constructs (CRE, NF-IL6, NF-κB) (human COX-2 promoter; B16 cells): able to suppress | NF-κB•DNA complex, of LPS alone (NF-κB•DNA complex; 25 μg/mL): 77% | NF-κB•DNA complex, of LPS alone (NF-κB•DNA complex; 50 μg/mL): 23% | NF-κB•DNA complex level (NF-κB•DNA complex; LPS 60 min): 0.43 times that of LPS alone (1.0) | NF-κB•DNA complex level (NF-κB•DNA complex; LPS 90 min): 0.30 times that of LPS alone (1.0) | NF-κB•DNA complex level (NF-κB•DNA complex; LPS 120 min): 0.16 times that of LPS alone (1.0) | NF-κB•DNA complex level (NF-κB•DNA complex; LPS 180 min): 0.01 times that of LPS alone (1.0) | Inhibition of NF-κB•DNA complex formation (structure-activity study) (NF-κB•DNA complex; 100 μM, LPS 1 μg/mL, 90 min): almost completely inhibited | Reduction of iNOS mRNA expression (iNOS mRNA): approximately 56%
